This note sets out measurements from PubChem BioAssay AID1159564 (GlaxoSmithKline (GSK), 2015).

For this test, the system named is L. donovani-infected THP-1 macrophages, intracellular amastigote imaging. Nature of the test: antileishmanial activity in infected THP-1 macrophages – imaging, THP-1 host macrophages, host toxicity (AID 1159564).
Setting [1] is: measured here: THP-1 host cell toxicity.
Setting [2] is: measured here: amastigotes per macrophage.

Molecules are shown by their SMILES. Active and inactive are the calls of the source. The rule behind the calls is not given here. Where only a bound is given, the exact number is not on record here.

In general, IC50 refers to the point on the concentration scale where inhibition reaches its midpoint. For the molecule `Cc1cc(N(C)C)nc2ccc(Cc3cnc(N)nc3N)cc12`, the IC50 was 32 µM. The IC50 under setting [1] was determined as 40 µM. The same molecule showed a half-maximal inhibitory concentration (IC50) under setting [2] of 40 µM.
For the molecule `CNS(=O)(=O)c1ccccc1Nc1nc(Nc2cc(C)nn2C)ncc1Cl`, the IC50 was 1 µM. Besides, the IC50 under setting [1] came to 0.2 µM. Also, the IC50 under setting [2] worked out at 0.25 µM.
Consider `O=C(NCC(c1cccs1)N1CCOCC1)c1ccc([N+](=O)[O-])o1` (stereo unspecified), for which the IC50 was 25 µM. Under setting [1], the IC50 was found to be 25 µM. Moreover, the 50% inhibitory concentration (IC50) under setting [2] worked out at 16 µM.
For the molecule `Cc1cc(C)cc(NS(=O)(=O)c2cc(-c3cc(C)[nH]n3)ccc2C)c1`, the IC50 is 7.9 µM. In addition, the IC50 under setting [2] was 3.2 µM.
Take `O=C(Nc1cccc(Cl)c1)N1CCCCC1c1cccnc1` (stereo unspecified): the IC50 was > 50 µM (inactive). Under setting [1], the IC50 is over 50 µM. The half-inhibitory concentration (IC50) under setting [2] is over 50 µM.
Take `O=[N+]([O-])c1ccc(-c2nnn(-c3ccc(Cl)cc3)n2)o1`: the IC50 is > 50 µM (inactive). This molecule came in with an IC50 under setting [1] of over 50 µM. In addition, the IC50 under setting [2] is over 50 µM.
In the case of `Cn1cc(CN2CCN(c3ccc4c(c3)CCN(C(=O)[C@H]3C[C@@H]3c3ccccc3)CC4)CC2)cn1`, the IC50 is 32 µM. Moreover, under setting [1], the IC50 was determined as 6.3 µM. Also, the IC50 under setting [2] is 1 µM.
`COc1ccccc1CNc1cc(C2CC2)nc(-c2nccn2C)n1`: the IC50 was 0.5 µM. The same molecule registered an IC50 under setting [1] of 16 µM. The IC50 under setting [2] is 0.4 µM.
As for `O=C(NNC(=O)c1ccccn1)c1ccc(-c2ccccc2)cc1`, the 50% inhibitory concentration (IC50) is 6.3 µM. Under setting [1], this molecule gave an IC50 of 3.2 µM. This molecule showed an IC50 under setting [2] of 3.2 µM.
Regarding `Cc1ccccc1CNC(=O)CN(Cc1ccccn1)Cc1ccccn1`, the IC50 is 6.3 µM. For the same molecule, the IC50 under setting [1] was over 79 µM. This molecule gave an IC50 under setting [2] of 4 µM.
Turning to `Cc1nc2c(-c3ncn[nH]3)cc(NC(=O)Cc3ccccc3)cn2c1C`, the IC50 is 0.4 µM. The molecule further displayed an IC50 under setting [1] of 7.9 µM. Under setting [2], this molecule displayed an IC50 of 0.32 µM.
Taken in the same sequence, the figures for `Cc1[nH]nc(C(F)(F)F)c1NC(=O)CCn1cc(Cl)c([N+](=O)[O-])n1` were > 50 µM (inactive), 16 µM and over 50 µM.
For the molecule `NCc1csc(Nc2cc(Oc3ccccc3)ncn2)n1`, the IC50 was 25 µM. Under setting [1], this molecule had an IC50 of over 50 µM. The same molecule gave an IC50 under setting [2] of 25 µM.
Take `Cc1ccnc(NS(=O)(=O)c2ccc(NC(=O)c3ccc([N+](=O)[O-])s3)cc2)n1`: the IC50 is 10 µM. Besides, the IC50 under setting [1] was 10 µM. The molecule also showed an IC50 under setting [2] of 5 µM.
For `Cc1cc2nc(CN(C)Cc3ncccc3C)[nH]c2cc1C`, the IC50 is 0.63 µM. Besides, the 50% inhibitory concentration (IC50) under setting [1] was found to be 7.9 µM. Under setting [2], this molecule came in with an IC50 of 0.5 µM.
Taken in the same sequence, the figures for `COc1ccc(C2CC(c3ccccc3Cl)=NN2C(=O)CNC(=O)C2CCCC2)cc1` (stereo unspecified) were > 50 µM (inactive), over 50 µM and over 50 µM.
Consider `CC(=O)Nc1cccc(Nc2ncnc3nc[nH]c23)c1`, for which the IC50 was > 50 µM (inactive). For the same molecule, under setting [1], the IC50 stood at 10 µM. The IC50 under setting [2] was determined as 40 µM.
As to `COc1ccc(C2CC(c3ccc(NS(C)(=O)=O)cc3)=NN2C(=O)c2cccs2)cc1OC` (stereo unspecified), the IC50 is 5 µM. The IC50 under setting [1] is over 50 µM. Under setting [2], this molecule displayed a concentration for half-maximal inhibition (IC50) of 4 µM.
Turning to `OC[C@@H](Nc1nccc(-c2c(-c3ccc(F)cc3)ncn2C2CCNCC2)n1)c1ccccc1`, the IC50 is 32 µM. For the same molecule, under setting [1], the IC50 stood at 32 µM. The molecule also returned a half-inhibitory concentration (IC50) under setting [2] of 32 µM.
`O=C(c1ccccc1)N1CCC(C(=O)N2CCC(Oc3ccccc3Cl)CC2)CC1`: the IC50 was > 50 µM (inactive). This molecule displayed an IC50 under setting [1] of over 50 µM. Under setting [2], this molecule displayed an IC50 of 32 µM.
`CCN(CC)S(=O)(=O)c1ccc(OC)c(NC(=O)c2ccc([N+](=O)[O-])s2)c1`: the IC50 was > 50 µM (inactive). Under setting [1], this molecule showed an IC50 of over 50 µM. Also, the IC50 under setting [2] is over 50 µM.
Turning to `COc1ccc(C(=O)N2CCC(Nc3cccnc3)C2)c(OC)n1` (stereo unspecified), the IC50 was > 50 µM (inactive). Under setting [1], this molecule had an IC50 of over 50 µM. The 50% inhibitory concentration (IC50) under setting [2] was over 50 µM.
For `Cc1cc(Nc2cc(C3CC3)[nH]n2)nc(N2CCC[C@H]2C(N)=O)n1`, the IC50 is 0.2 µM. For the same molecule, the IC50 under setting [1] was 0.13 µM. Under setting [2], the IC50 came out at 0.079 µM.
As for `CC(C)C[C@H](NC(=O)c1ccc(-c2ccccc2)o1)C(=O)NC1(C#N)CC1`, the IC50 was > 50 µM (inactive). Moreover, the IC50 under setting [1] was over 50 µM. Moreover, the IC50 under setting [2] amounted to 16 µM.
`Oc1c(-c2n[nH]c(Cc3ccc(F)cc3)n2)ncc2cccnc12`: the IC50 is 1 µM. The same molecule gave an IC50 under setting [1] of 20 µM. Under setting [2], this molecule gave an IC50 of 1 µM.
Take `COc1ccc(OC)c2c(=O)c(Cc3ccccc3)c(C)[nH]c12`: the IC50 is 4 µM. For the same molecule, the IC50 under setting [1] is over 50 µM. Under setting [2], this molecule yielded an IC50 of 2.5 µM.
For the molecule `N#Cc1cnc(Nc2cccc(CCN3CCOCC3)c2)nc1Nc1ccccc1C(N)=O`, the IC50 is 1.6 µM. In addition, under setting [1], the IC50 worked out at 0.79 µM. The same molecule showed an IC50 under setting [2] of 1 µM.
Consider `O=C(NCC(c1cccnc1)N1CCc2ccccc2C1)C(=O)Nc1cccc(Cl)c1` (stereo unspecified), for which the IC50 was > 50 µM (inactive). In addition, the IC50 under setting [1] was over 50 µM. Under setting [2], this molecule showed an IC50 of over 50 µM.
On to `O=C(CSc1nnc(-c2ccc3c(c2)OCO3)o1)N(Cc1ccco1)CC(F)(F)F`, for which the half-inhibitory concentration (IC50) was 7.9 µM. Further, the IC50 under setting [1] was over 50 µM. In addition, under setting [2], the IC50 came to 3.2 µM.
Take `O=C(NCC1CCCCN1C(=O)c1cccc2ccccc12)c1ccccc1` (stereo unspecified): the IC50 was > 50 µM (inactive). Further, the half-maximal inhibitory concentration (IC50) under setting [1] was over 50 µM. The molecule further came in with an IC50 under setting [2] of over 50 µM.
Turning to `CN(C)CCOc1ccc(N2CCN(S(=O)(=O)c3ccc(Cl)cc3)CC2)cc1`, the IC50 is 32 µM. The molecule also gave an IC50 under setting [1] of over 50 µM. For the same molecule, the IC50 under setting [2] was 32 µM.
As for `N#Cc1ccc(S(=O)(=O)N2CCN(Cc3cccc(-c4ccncc4)c3)CC2)cc1`, the IC50 was > 50 µM (inactive). The molecule also registered an IC50 under setting [1] of over 50 µM. Also, the 50% inhibitory concentration (IC50) under setting [2] was found to be 1.3 µM.
Taken in the same sequence, the figures for `COc1ccc(CN2CCCCC2c2nc(-c3cccnc3)no2)cc1` (stereo unspecified) were > 50 µM (inactive), over 50 µM and over 50 µM.
Turning to `O=C(NCCc1ccn(-c2ccccc2)n1)C1CCCCC1`, the IC50 is > 50 µM (inactive). Further, the IC50 under setting [1] is over 50 µM. The molecule also returned an IC50 under setting [2] of over 50 µM.
As to `CC(C)(C)c1csc(NC(=O)c2ccc([N+](=O)[O-])s2)n1`, the IC50 was 3.2 µM. The molecule further had an IC50 under setting [1] of over 50 µM. This molecule returned an IC50 under setting [2] of 2.5 µM.
As to `Nc1nonc1-c1nc2cncc(C(=O)N3CC[C@H](N)C3)c2n1CC1CC1`, the IC50 is 20 µM. Moreover, under setting [1], the IC50 came to 13 µM. Under setting [2], this molecule registered an IC50 of 40 µM.
Taken in the same sequence, the figures for `O=c1[nH]c(C=Cc2cccc(OCCOc3ccccc3)c2)nc(O)c1[N+](=O)[O-]` were > 50 µM (inactive), over 50 µM and over 50 µM.
On to `CCC(=O)Nc1ccc(C(=O)Nc2ccccc2-c2ccccc2)cc1`, for which the 50% inhibitory concentration (IC50) is 20 µM. Besides, under setting [1], the IC50 came to 16 µM. This molecule displayed an IC50 under setting [2] of 25 µM.
Regarding `CCCCn1nnnc1CSc1nc(C)cc(C)c1C#N`, the IC50 was 4 µM. Besides, under setting [1], the IC50 was over 50 µM. The molecule also showed an IC50 under setting [2] of 3.2 µM.
